The source made the active and inactive calls. No cut-off for these calls is given here.
Assays:
Type in all cases: functional
[1] = system: Hordeum vulgare subsp. vulgare; assay: Compound was tested for inhibition of GA-inducible alpha-amylase induction in barley aleurone protoplasts at 0.1 uM
[2] = system: Hordeum vulgare subsp. vulgare; assay: Compound was tested for inhibition of GA-inducible alpha-amylase induction in barley aleurone protoplasts at 1 uM
[3] = system: Hordeum vulgare subsp. vulgare; assay: Compound was tested for inhibition of GA-inducible alpha-amylase induction in barley aleurone protoplasts at 100 uM
[4] = system: Hordeum vulgare subsp. vulgare; assay: Compound was tested for inhibition of GA-inducible alpha-amylase induction in barley aleurone protoplasts at 10 uM
[5] = system: Hordeum vulgare subsp. vulgare; assay: Compound was tested for inhibition of GA3-induced alpha-amylase induction and induction of the accumulation of dehydrin in unstressed barley seeds; Active
Lepidium sativum [6] = assay: Compound was tested for inhibition of cress germination at 0.1 uM
Lepidium sativum [7] = assay: Compound was tested for inhibition of cress germination at 10 uM
Lepidium sativum [8] = assay: Compound was tested for inhibition of cress germination at 100 uM
Lepidium sativum [9] = assay: Compound was tested for inhibition of cress germination at 1 uM
[10] = system: Hordeum vulgare subsp. vulgare; assay: Compound was tested for inhibition of GA3-induced alpha-amylase induction and induction of the accumulation of dehydrin in unstressed barley seeds at 10 uM; Active

Compound	inhibition [1] [%]	inhibition [2] [%]	inhibition [3] [%]	inhibition [4] [%]	Activity [5]	inhibition at 0.1 µM (Lepidium sativum [6]) [%]	inhibition at 10 µM (Lepidium sativum [7]) [%]	inhibition at 100 µM (Lepidium sativum [8]) [%]	inhibition at 1 µM (Lepidium sativum [9]) [%]	Activity [10]
CO[C@H]1C=C(C)[C@](O)(/C=C/C(C)=C\C(=O)O)C(C)(C)C1	20	50	100	90	Active	~20	~95	~100	~40	
CO[C@@H]1C=C(C)[C@](O)(/C=C/C(C)=C\C(=O)O)C(C)(C)C1	60	90	100	100	Active	~40	~95	~100	~60	
CC1=CC(=O)CC(C)(C)[C@@]1(O)/C=C/C(C)=C\C(=O)O (racemic) [(+)-ABSCISIC ACID]	50	100	100	100		~60	~100	~100	~80	Active
